The source made the active and inactive calls.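 Rule for the calls: active = dose curve with falling signal and an AC50 no higher than twice the top valid tested dose; inconclusive = flat curve with 30 to 70% inhibition, or a poor fit; inactive = rising signal, flat weak curve, or AC50 over that limit.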
Target: Melanocortin receptor 4 (Homo sapiens) (UniProt P32245)
Assay: inhibition of alpha-MSH-driven MC4R cAMP reporter – cell-based, HEK293, luminescence, dry powder, counter-screen for LGR2 antagonist project, dose response (AID 743505)
Settings: HEK293 MC4R CRE-luciferase, antagonist mode; for activity change, negative = inhibition: at 35 µM (top of the series)

Sequence of Melanocortin receptor 4 (Homo sapiens) (P32245 whole entry, looked up): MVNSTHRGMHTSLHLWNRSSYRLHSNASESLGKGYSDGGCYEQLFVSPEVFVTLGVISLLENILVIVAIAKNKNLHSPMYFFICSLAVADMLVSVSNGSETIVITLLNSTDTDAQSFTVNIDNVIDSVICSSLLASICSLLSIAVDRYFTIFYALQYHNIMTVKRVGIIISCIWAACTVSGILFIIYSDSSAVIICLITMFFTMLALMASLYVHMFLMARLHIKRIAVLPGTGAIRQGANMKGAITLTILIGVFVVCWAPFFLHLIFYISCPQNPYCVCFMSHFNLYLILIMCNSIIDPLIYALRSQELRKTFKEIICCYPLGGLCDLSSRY

Structure (SMILES) | AC50 | activity change, negative = inhibition
C[C@H]1CCCCO[C@@H](CN(C)S(=O)(=O)c2ccc(Cl)cc2)[C@@H](C)CN([C@@H](C)CO)C(=O)c2cc(NC(=O)NC3CCCCC3)ccc2O1 | > 70 µM (inactive) | 
C[C@H](CO)N1C[C@H](C)[C@H](CN(C)C(=O)Nc2ccc(F)cc2)OCCCC[C@H](C)Oc2ccc(NC(=O)NC3CCCCC3)cc2C1=O |  | inactive
C[C@H](CO)N1C[C@H](C)[C@H](CN(C)C(=O)Nc2ccc(F)cc2)OCCCC[C@H](C)Oc2ccc(NC(=O)C3CCC3)cc2C1=O |  | inactive
C[C@H](CO)N1C[C@H](C)[C@H](CN(C)C(=O)Nc2ccc(F)cc2)OCCCC[C@H](C)Oc2ccc(NC(=O)C3CCCCCC3)cc2C1=O |  | inactive
C[C@H](CO)N1C[C@H](C)[C@H](CN(C)C(=O)Nc2ccccc2)OCCCC[C@H](C)Oc2ccc(NC(=O)C3CCCCC3)cc2C1=O |  | inactive
C[C@H](CO)N1C[C@H](C)[C@H](CN(C)C(=O)Nc2ccc(F)cc2)OCCCC[C@H](C)Oc2ccc(NC(=O)C3CCCCC3)cc2C1=O |  | inactive
C[C@H](CO)N1C[C@H](C)[C@H](CN(C)C(=O)Nc2ccc(F)cc2)OCCCC[C@H](C)Oc2ccc(NC(=O)Nc3ccccc3)cc2C1=O |  | inactive
C[C@H](CO)N1C[C@H](C)[C@H](CN(C)C(=O)Nc2cccc(F)c2)OCCCC[C@H](C)Oc2ccc(NC(=O)C3CCCCC3)cc2C1=O |  | inactive
COc1ccc(S(=O)(=O)N(C)C[C@@H]2OCCCC[C@H](C)Oc3ccc(NS(=O)(=O)c4ccc(F)cc4)cc3C(=O)N([C@@H](C)CO)C[C@@H]2C)cc1 |  | inactive
C[C@H](CO)N1C[C@H](C)[C@H](CN(C)C(=O)Nc2cccc3ccccc23)OCCCC[C@H](C)Oc2ccc(NC(=O)CCC(F)(F)F)cc2C1=O |  | inactive
C[C@H]1CCCCO[C@@H](CN(C)C(=O)Nc2ccccc2)[C@@H](C)CN([C@@H](C)CO)C(=O)c2cc(NC(=O)NC3CCCCC3)ccc2O1 |  | inactive
C[C@H](CO)N1C[C@H](C)[C@H](CN(C)C(=O)Nc2ccc(F)cc2)OCCCC[C@H](C)Oc2ccc(NC(=O)Nc3ccc(F)cc3)cc2C1=O |  | inactive
CC(=O)Nc1ccc2c(c1)C(=O)N([C@H](C)CO)C[C@H](C)[C@H](CN(C)C(=O)Nc1ccc(F)cc1)OCCCC[C@H](C)O2 |  | inactive
C[C@H](CO)N1C[C@H](C)[C@H](CN(C)C(=O)Nc2ccc3c(c2)OCO3)OCCCC[C@H](C)Oc2ccc(NC(=O)C3CCCCC3)cc2C1=O |  | inactive
C[C@H]1CCCCO[C@@H](CN(C)C(=O)Nc2ccc(C(F)(F)F)cc2)[C@@H](C)CN([C@@H](C)CO)C(=O)c2cc(NC(=O)CCC(F)(F)F)ccc2O1 |  | inactive
C[C@H](CO)N1C[C@H](C)[C@H](CN(C)C(=O)Nc2ccc(C(F)(F)F)cc2)OCCCC[C@H](C)Oc2ccc(NC(=O)CCC(F)(F)F)cc2C1=O |  | inactive
C[C@H]1CCCCO[C@@H](CN(C)C(=O)Nc2ccc3c(c2)OCO3)[C@@H](C)CN([C@@H](C)CO)C(=O)c2cc(NC(=O)NC3CCCCC3)ccc2O1 |  | inactive

Structure (SMILES) | AC50 | activity change, negative = inhibition
C[C@H](CO)N1C[C@H](C)[C@H](CN(C)C(=O)Nc2ccc(Cl)cc2)OCCCC[C@H](C)Oc2ccc(NC(=O)C3CCCCC3)cc2C1=O |  | inactive
C[C@H](CO)N1C[C@H](C)[C@H](CN(C)C(=O)Nc2ccc(F)cc2)OCCCC[C@H](C)Oc2ccc(NC(=O)C3CCOCC3)cc2C1=O |  | inactive
C[C@H](CO)N1C[C@H](C)[C@H](CN(C)C(=O)Nc2ccc(F)cc2)OCCCC[C@H](C)Oc2ccc(NC(=O)C3CCCC3)cc2C1=O |  | inactive
COc1ccc(NC(=O)N(C)C[C@@H]2OCCCC[C@H](C)Oc3ccc(NC(=O)C4CCCCC4)cc3C(=O)N([C@H](C)CO)C[C@@H]2C)cc1 |  | inactive
C[C@H]1CCCCO[C@@H](CN(C)C(=O)Nc2ccc(F)cc2)[C@@H](C)CN([C@@H](C)CO)C(=O)c2cc(NC(=O)C3CCCCC3)ccc2O1 |  | inactive
C[C@H](CO)N1C[C@H](C)[C@H](CN(C)C(=O)Nc2ccccc2)OCCCC[C@H](C)Oc2ccc(NC(=O)NC3CCCCC3)cc2C1=O |  | inactive
COc1ccc(NC(=O)N(C)C[C@@H]2OCCCC[C@H](C)Oc3ccc(NC(=O)NC4CCCCC4)cc3C(=O)N([C@H](C)CO)C[C@@H]2C)cc1 |  | inactive
C[C@H](CO)N1C[C@H](C)[C@H](CN(C)C(=O)Nc2ccc(F)cc2)OCCCC[C@H](C)Oc2ccc(NC(=O)C3CC3)cc2C1=O |  | inactive
C[C@H](CO)N1C[C@H](C)[C@H](CN(C)C(=O)Nc2ccccc2)OCCCC[C@H](C)Oc2ccc(NC(=O)Nc3ccc4c(c3)OCO4)cc2C1=O |  | inactive
C[C@H](CO)N1C[C@H](C)[C@H](CN(C)C(=O)Nc2ccc3c(c2)OCO3)OCCCC[C@H](C)Oc2ccc(NC(=O)NC3CCCCC3)cc2C1=O |  | inactive
C[C@H](CO)N1C[C@H](C)[C@H](CN(C)C(=O)Nc2ccccc2)OCCCC[C@H](C)Oc2ccc(NC(=O)Nc3ccccc3)cc2C1=O |  | inactive
CC(C)(C)c1ccc(-c2nc(-c3ccncc3)no2)cc1 |  | inactive
Cc1ccc(NC(=O)N(C)C[C@@H]2OCCCC[C@H](C)Oc3ccc(NC(=O)C4CCCCC4)cc3C(=O)N([C@H](C)CO)C[C@@H]2C)cc1 |  | inactive
C[C@H](CO)N1C[C@H](C)[C@H](CN(C)C(=O)Nc2ccccc2)OCCCC[C@H](C)Oc2ccc(NC(=O)CCC(F)(F)F)cc2C1=O |  | inactive
C[C@H](CO)N1C[C@H](C)[C@H](CN(C)C(=O)Nc2cccc3ccccc23)OCCCC[C@H](C)Oc2ccc(NC(=O)c3ccccc3)cc2C1=O |  | inactive
C[C@H](CO)N1C[C@H](C)[C@H](CN(C)C(=O)Nc2ccc(C(F)(F)F)cc2)OCCCC[C@H](C)Oc2ccc(NC(=O)NC3CCCCC3)cc2C1=O |  | inactive

Other lines, results leading:

AC50 | activity change, negative = inhibition | Structure (SMILES)
 | inactive | C[C@@H]1CCCCO[C@H](CN(C)C(=O)Nc2cccc3ccccc23)[C@@H](C)CN([C@@H](C)CO)C(=O)c2cc(NC(=O)C3CCCCC3)ccc2O1
 | inactive | C[C@H]1CCCCO[C@@H](CN(C)C(=O)Nc2cccc3ccccc23)[C@@H](C)CN([C@@H](C)CO)C(=O)c2cc(NC(=O)C3CCCCC3)ccc2O1
 | inactive | C[C@@H]1CCCCO[C@@H](CN(C)C(=O)Nc2cccc3ccccc23)[C@@H](C)CN([C@H](C)CO)C(=O)c2cc(NC(=O)C3CCCCC3)ccc2O1
 | inactive | C[C@H](CO)N1C[C@H](C)[C@H](CN(C)C(=O)Nc2ccc3ccccc3c2)OCCCC[C@H](C)Oc2ccc(NC(=O)C3CCCCC3)cc2C1=O
 | inactive | C[C@H](CO)N1C[C@H](C)[C@@H](CN(C)C(=O)Nc2cccc3ccccc23)OCCCC[C@H](C)Oc2ccc(NC(=O)C3CCCCC3)cc2C1=O
 | inactive | C[C@@H]1CCCCO[C@H](CN(C)C(=O)Nc2cccc3ccccc23)[C@H](C)CN([C@H](C)CO)C(=O)c2cc(NC(=O)C3CCCCC3)ccc2O1
 | inactive | C[C@@H]1CN([C@@H](C)CO)C(=O)c2cc(NC(=O)C3CCCCC3)ccc2O[C@@H](C)CCCCO[C@@H]1CN(C)C(=O)Nc1cccc2ccccc12
 | inactive | C[C@@H]1CCCCO[C@H](CN(C)C(=O)Nc2cccc3ccccc23)[C@H](C)CN([C@@H](C)CO)C(=O)c2cc(NC(=O)C3CCCCC3)ccc2O1
7.91 µM |  | C[C@@H]1CCCCO[C@@H](CN(C)C(=O)Nc2cccc3ccccc23)[C@H](C)CN([C@H](C)CO)C(=O)c2cc(NC(=O)C3CCCCC3)ccc2O1
 | inactive | C[C@@H]1CN([C@@H](C)CO)C(=O)c2cc(NC(=O)C3CCCCC3)ccc2O[C@@H](C)CCCCO[C@H]1CN(C)C(=O)Nc1cccc2ccccc12
 | inactive | C[C@H]1CCCCO[C@H](CN(C)C(=O)Nc2cccc3ccccc23)[C@@H](C)CN([C@@H](C)CO)C(=O)c2cc(NC(=O)C3CCCCC3)ccc2O1
 | inactive | C[C@@H]1CN([C@H](C)CO)C(=O)c2cc(NC(=O)C3CCCCC3)ccc2O[C@@H](C)CCCCO[C@@H]1CN(C)C(=O)Nc1cccc2ccccc12
> 70 µM (inactive) |  | C[C@@H]1CCCCO[C@@H](CN(C)C(=O)Nc2cccc3ccccc23)[C@H](C)CN([C@@H](C)CO)C(=O)c2cc(NC(=O)C3CCCCC3)ccc2O1
 | inactive | C[C@@H]1CN([C@H](C)CO)C(=O)c2cc(NC(=O)C3CCCCC3)ccc2O[C@@H](C)CCCCO[C@H]1CN(C)C(=O)Nc1cccc2ccccc12
 | inactive | C[C@H](CO)N1C[C@H](C)[C@H](CN(C)C(=O)Nc2ccccc2F)OCCCC[C@H](C)Oc2ccc(NC(=O)C3CCCCC3)cc2C1=O
 | inactive | C[C@H](CO)N1C[C@H](C)[C@H](CN(C)C(=O)Nc2cccc3ccccc23)OCCCC[C@H](C)Oc2ccc(NC(=O)C3CCCCC3)cc2C1=O
 | inactive | C[C@H](CO)N1C[C@H](C)[C@H](CN(C)C(=O)Nc2cccc3ccccc23)OCCCC[C@H](C)Oc2ccc(NC(=O)NC3CCCCC3)cc2C1=O
> 70 µM (inactive) |  | C[C@@H]1CCCCO[C@H](CN(C)C(=O)Nc2cccc3ccccc23)[C@@H](C)CN([C@H](C)CO)C(=O)c2cc(NC(=O)C3CCCCC3)ccc2O1

From PubChem BioAssay AID743505 (Broad Institute, 2014)
